According to ChEMBL document CHEMBL5512692, “Colloidal Aggregation Confounds Cell-Based Covid-19 Antiviral Screens” (J Med Chem, 2024):
Active and inactive are the calls of the source. The rule behind the calls is not given here.

Assays:
[1] = Aggregation property of compound in 50 mM KPi buffer at pH 7 assessed as critical aggregation concentration by DLS assay; assay type: physicochemical
[2] = Aggregation property of compound in DMEM media assessed as critical aggregation concentration by DLS assay; assay type: physicochemical
[3] = Inhibition of Beta-lactamase AmpC (unknown origin) using CENTA as chromogenic substrate preincubated for 5 mins followed by substrate addition and measured for 80 sec by absorbance based analysis; parameters: species or system Bacteria
[4] = test system: Bacteria; experiment: (§1) Inhibition of Beta-lactamase AmpC (unknown origin) using CENTA as chromogenic substrate assessed as enzyme recovery by measuring residual activity at approximately IC90 preincubated for 5 mins in presence of triton X-0.01% followed by substrate addition and measured for 80 sec by absorbance based analysis relative to control; conditions: time 380.0 sec
[5] = test system: Bacteria; experiment: as §1, with “of 10 mg/ml BSA” for “of triton X-0.01%”, “by enzyme” for “by substrate”, “measured after 5 mins” for “measured for 80 sec”; conditions: time 10.0 min
[6] = Absorption property of compound in DMEM media at 100 to 200 uM at 500 to 700 nm by luciferase assay; assay type: physicochemical; conditions: dose 100-200 µM
[7] = test system: SARS-CoV-2; experiment: Antiviral activity against luciferase independent SARS CoV-2 spike-pseudotyped lentivirus infected in human A549-hACE2-TMPRSS2 cells assessed as inhibition of viral entry by measuring reduction in luciferase activity incubated for 24 hrs by luciferase reporter assay; assay type: functional, organism-based; conditions: Severe acute respiratory syndrome coronavirus 2
[8] = test system: SARS-CoV-2; experiment: Antiviral activity against luciferase independent SARS CoV-2 spike-pseudotyped lentivirus infected in human A549-hACE2-TMPRSS2 cells assessed as inhibition of viral entry compound spin-down for 1 hr followed by viral infection and measured after 24 hrs by luciferase reporter assay; assay type: functional, organism-based; conditions: Severe acute respiratory syndrome coronavirus 2, A549-hACE2-TMPRSS2
[9] = test system: SARS-CoV-2; experiment: Antiviral activity against luciferase independent SARS CoV-2 spike-pseudotyped lentivirus infected in human A549-hACE2-TMPRSS2 cells assessed as inhibition of viral entry measured after 24 hrs before centrifugation by luciferase reporter assay; assay type: functional, organism-based; conditions: Severe acute respiratory syndrome coronavirus 2, A549-hACE2-TMPRSS2
[10] = test system: SARS-CoV-2; experiment: Antiviral activity against SARS-CoV-2; assay type: functional, organism-based; conditions: Severe acute respiratory syndrome coronavirus 2
[11] = Inhibition of porcine heart MDH using oxaloacetic acid as substrate preincubated for 5 mins followed by substrate and […] addition and measured for 80 sec by absorbance based analysis; parameters: species or system Sus scrofa
[12] = species on record: Sus scrofa; experiment: (§2) Inhibition of porcine heart MDH using oxaloacetic acid as substrate assessed as enzyme recovery by measuring residual activity at approximately IC90 preincubated for 5 mins in presence of triton X-0.01% followed by substrate and NADPH addition and measured for 80 sec by absorbance based analysis relative to control; conditions: time 380.0 sec
[13] = species on record: Sus scrofa; experiment: as §2, with “10 mg/ml BSA” for “triton X-0.01%”, “enzyme” for “substrate and NADPH”, “after 5 mins” for “for 80 sec”; conditions: time 10.0 min
[14] = test system: SARS-CoV-2; experiment: Antiviral activity against SARS-CoV-2 pseudovirus infected in 293T/ACE2 cells assessed as reduction in virus entry preincubated with compound followed by infection in cells and measured after 48 hrs by luciferase based assay; assay type: functional, organism-based; conditions: Severe acute respiratory syndrome coronavirus 2, 293T/ACE2
[15] = test system: SARS-CoV-2; experiment: Antiviral activity against luciferase independent SARS CoV-2 spike-pseudotyped lentivirus infected in human A549-hACE2-TMPRSS2 cells assessed as inhibition of viral entry at 31.6 to 63.3 uM compound spin-down for 1 hr followed by viral infection and measured after 24 hrs by luciferase reporter assay; assay type: functional, organism-based; conditions: Severe acute respiratory syndrome coronavirus 2, dose 31.6-63.3 µM, time 25.0 hrs
[16] = test system: SARS-CoV-2; experiment: Antiviral activity against SARS-CoV-2 infected in Vero E6 cells assessed as reduction in virus induced cytopathic effect pretreated for 30 mins followed by virus infection and measured after 72 hrs by MTS assay; assay type: functional, organism-based; conditions: Severe acute respiratory syndrome coronavirus 2, Vero C1008
[17] = species on record: Sus scrofa; experiment: Inhibition of porcine heart MDH using oxaloacetic acid as substrate at approximately IC90 spin-down for 1 hr followed by enzyme addition and measured after 5 mins by absorbance based analysis; conditions: time 65.0 min
[18] = Cytotoxicity against human A549-hACE2-TMPRSS2 assessed as reduction in cell viability incubated for 24 hrs by MTT assay; assay type: toxicity, cell-based; conditions: a549-hace2-tmprss2, 24 h
[19] = test system: SARS-CoV-2; experiment: Antiviral activity against SARS-CoV-2 infected in Vero E6 cells assessed as reduction in viral infectivity; assay type: functional, organism-based; conditions: Severe acute respiratory syndrome coronavirus 2, Vero C1008
[20] = test system: SARS-CoV-2; experiment: Antiviral activity against SARS CoV-2 spike-pseudotyped lentivirus infected in human A549-hACE2-TMPRSS2 cells assessed as inhibition of viral entry incubated for 24 hrs in absence of BSA by luciferase reporter assay; assay type: functional, organism-based; conditions: Severe acute respiratory syndrome coronavirus 2, A549-hACE2-TMPRSS2, 24 h
[21] = molecular target: Spike glycoprotein (Severe acute respiratory syndrome coronavirus 2) (UniProt P0DTC2); experiment: (§3) Binding affinity to Alex-fluor-647 labeled SARS-CoV-2 spike protein assessed as protein-colloid complex formation by measuring fluorescence puncta formation incubated for 5 mins by confocal microscopic analysis
[22] = molecular target: Spike glycoprotein (Severe acute respiratory syndrome coronavirus 2) (UniProt P0DTC2); experiment: Binding affinity to Alex-fluor-647 labeled SARS-CoV-2 spike protein assessed as protein-colloid complex formation by measuring fluorescence puncta formation incubated for 5 mins in presence of 0.025% Tween-80 by confocal microscopic analysis
[23] = molecular target: Spike glycoprotein (Severe acute respiratory syndrome coronavirus 2) (UniProt P0DTC2); experiment: as §3, with “puncta formation compound preincubated with 10 mg/ml BSA for 5 mins followed by protein addition and further incubated for” for “puncta formation incubated for”
[24] = test system: SARS-CoV; experiment: Antiviral activity against HIV-Luc pseudotyped SARS CoV infected in Vero E6 cells assessed as reduction in virus entry preincubated for 30 mins followed by infection in cells and measured after 36 hrs by luciferase assay; assay type: functional, organism-based; conditions: Severe acute respiratory syndrome-related coronavirus, Vero C1008
[25] = test system: SARS-CoV-2; experiment: Antiviral activity against SARS CoV-2 spike-pseudotyped lentivirus infected in human A549-hACE2-TMPRSS2 cells assessed as inhibition of viral entry preincubated with 10 mg/ml BSA for 5 mins followed by viral infection and further incubated for 24 hrs by luciferase reporter assay; assay type: functional, organism-based; conditions: Severe acute respiratory syndrome coronavirus 2, A549-hACE2-TMPRSS2
[26] = molecular target: Spike glycoprotein (Severe acute respiratory syndrome coronavirus 2) (UniProt P0DTC2); experiment: Binding affinity to Alex-fluor-647 labeled SARS-CoV-2 spike protein assessed as protein-colloid complex formation by measuring fluorescence puncta formation at 200 uM incubated for 5 mins by confocal microscopic analysis

## CC1(C)[C@@H](O[C@H]2O[C@H](C(=O)O)[C@@H](O)[C@H](O)[C@H]2O[C@@H]2O[C@H](C(=O)O)[C@@H](O)[C@H](O)[C@H]2O)CC[C@]2(C)[C@H]3C(=O)C=C4[C@@H]5C[C@@](C)(C(=O)O)CC[C@]5(C)CC[C@@]4(C)[C@]3(C)CC[C@@H]12 [GLYCYRRHIZIN]
[1]
  CAC: 10 µM
[2]
  CAC: 15 µM
[3]
  IC50: 33 µM
[4]
  Activity: 47%
[5]
  Activity: 60%
[6]
  Activity: Not Active
[7]
  Activity: Active
[8]
  EC50: 45.7 µM
[9]
  EC50: 2600 nM
[10]
  EC50: 2.5 mM

## C[C@]12CC[C@@H]3c4ccc(OC(=O)c5ccccc5)cc4CC[C@H]3[C@@H]1CC[C@@H]2O [ESTRADIOL BENZOATE]
[1]
  CAC: 9.3 µM
[2]
  CAC: 1.8 µM
[11]
  IC50: 87 µM
[12]
  Activity: 89.1%
[13]
  Activity: 62%
[6]
  Activity: Not Active
[14]
  EC50: 270 nM

## Cc1ccc(C(=O)Nc2ccc(S(=O)(=O)O)c3cc(S(=O)(=O)O)cc(S(=O)(=O)O)c23)cc1NC(=O)c1cccc(NC(=O)Nc2cccc(C(=O)Nc3cc(C(=O)Nc4ccc(S(=O)(=O)O)c5cc(S(=O)(=O)O)cc(S(=O)(=O)O)c45)ccc3C)c2)c1 [SURAMIN]
[11]
  IC50: 1.2 µM
[12]
  Activity: -4.8%
[13]
  Activity: 91%
[6]
  Activity: Not Active
[15]
  Activity: Active
[16]
  EC50: 20 µM

## C=C(C)[C@@H]1CCC(C)=C[C@H]1c1c(O)cc(CCCCC)c(C(=O)O)c1O [CANNABIDIOLIC ACID]
[1]
  CAC: 61 µM
[2]
  CAC: 14 µM
[11]
  IC50: 47 µM
[12]
  Activity: 81.3%
[13]
  Activity: 61%
[17]
  inhibition: Active
[18]
  Activity: Toxic
[6]
  Activity: Not Active
[15]
  Activity: Active

## COc1cc(/C=C/C(=O)CC(=O)/C=C/c2ccc(O)c(OC)c2)ccc1O [CURCUMIN]
[1]
  CAC: 26 µM
[2]
  CAC: 12 µM
[11]
  IC50: 14 µM
[12]
  Activity: 116%
[13]
  Activity: 124%
[6]
  Activity: Not Active
[19]
  EC50: 16.3 µM

## Cc1cc(O)c2c(c1)C(=O)c1cc(O)cc(O)c1C2=O [EMODIN]
[1]
  CAC: 8.6 µM
[2]
  CAC: 63.1 µM
[11]
  IC50: 39 µM
[13]
  Activity: 67%
[20]
  EC50: 2210 nM
[6]
  Activity: Not Active
[7]
  Activity: Active
[9]
  EC50: 2220 nM
[21]
  Activity: Active
[22]
  Activity: inactive
[23]
  Activity: inactive
[10]
  EC50: 0.025 mM

## O=C(OC[C@H]1O[C@@H](OC(=O)c2cc(O)c(O)c(O)c2)[C@H](OC(=O)c2cc(O)c(O)c(O)c2)[C@@H](OC(=O)c2cc(O)c(O)c(O)c2)[C@@H]1O)c1cc(O)c(O)c(O)c1
[1]
  CAC: 12 µM
[2]
  CAC: 9.8 µM
[3]
  IC50: 13 µM
[4]
  Activity: 51%
[5]
  Activity: 80%
[20]
  EC50: 70 nM
[6]
  Activity: Not Active
[24]
  EC50: 2860 nM

## CCCCCc1cc(O)c(C/C=C(\C)CCC=C(C)C)c(O)c1C(=O)O [CANNABIGEROLIC ACID]
[1]
  CAC: 12 µM
[2]
  CAC: 162 µM
[11]
  IC50: 29 µM
[12]
  Activity: 95.7%
[13]
  Activity: 68%
[17]
  inhibition: Active
[20]
  EC50: 1210 nM
[18]
  Activity: Toxic
[6]
  Activity: Not Active
[7]
  Activity: Active
[15]
  Activity: Active
[21]
  Activity: Active
[22]
  Activity: inactive
[23]
  Activity: inactive

## CN1CCCC(n2nc(Cc3ccc(Cl)cc3)c3ccccc3c2=O)CC1 (centres undefined) [AZELASTINE]
[20]
  EC50: 27000 nM
[25]
  EC50: 44.7 µM
[7]
  Activity: Active
[8]
  EC50: 12.9 µM
[9]
  EC50: 18700 nM
[26]
  Activity: inactive
